Here are results for two molecules from PMC7617869, “Molecular glues that inhibit deubiquitylase activity and inflammatory signaling” (Nature Structural & Molecular Biology, 2025).

Holding throughout (format): biochemical
One assay addresses BRISC BRCC45 C245A (Homo sapiens, UniProt P46736+Q15018+Q9NXR7, C245A). The assay is described as follows: BRISC mutant IQF assay: BRCC45 C245A. As to the method:
(§1) IQF assays were performed in DUB reaction buffer containing 50 mM HEPES–NaOH pH 7.0, 100 mM NaCl, 0.1 mg ml^−1 BSA, 1 mM DTT and 0.03% v/v Brij-35. […] The final concentration of BRISC WT, all BRISC mutants, HsBRISCΔLoop, MmBRISC and DrBRISCΔNΔC was 1 nM. Other enzymes were tested at the following concentrations: 5 nM ARISC (FL), 10 nM CfBRISCΔNΔC, 250 nM AMSH* (ref. [43]), 500 nM USP2 and 1 μM trypsin (Sigma, 9002-07-7). For Michaelis–Menten experiments, 1 nM BRISC with 0–1 μM IQF K63-linked diubiquitin substrate was used. Michaelis–Menten analyses and Lineweaver–Burk plots were calculated using GraphPad Prism (version 9.0).
(§2) To assess enzymatic activity, BRISC complexes were diluted to concentrations between 1 nM and 50 nM. […] Then, 20-μl enzyme reactions were carried out in 384-well black flat-bottom low-flange plates (Corning, 35373). DUB activity was measured using IQF K63-linked diubiquitin (LifeSensors, DU6303) at 50 nM. Cleaved diubiquitin was monitored by measuring fluorescence intensity (excitation, 544 nm; emission, 575 nm; dichroic mirror, 560 nm). Fluorescence intensity was measured every minute for 30 min at 30 °C. Fluorescence intensity units were plotted against time to generate a linear reaction progress curve, where the initial velocity (V0) corresponds to the gradient of the curve (typically achieved within 15 min). IC50 values were calculated using the GraphPad Prism (version 9.0) built-in dose–response equation for inhibitor concentration versus response (variable slope).

Another assay concerns the target BRISC BRCC45 R137A+F140A (Homo sapiens, UniProt P46736+Q15018+Q9NXR7, F140A/R137A). The assay is described as follows: BRISC mutant IQF assay: BRCC45 R137A+F140A. The protocol:
as §1
(§3) To assess enzymatic activity, BRISC complexes were diluted to concentrations between 1 nM and 50 nM. […] DUB activity was measured using IQF K63-linked diubiquitin (LifeSensors, DU6303) at 50 nM. Cleaved diubiquitin was monitored by measuring fluorescence intensity (excitation, 544 nm; emission, 575 nm; dichroic mirror, 560 nm). Fluorescence intensity was measured every minute for 30 min at 30 °C. Fluorescence intensity units were plotted against time to generate a linear reaction progress curve, where the initial velocity (V0) corresponds to the gradient of the curve (typically achieved within 15 min). IC50 values were calculated using the GraphPad Prism (version 9.0) built-in dose–response equation for inhibitor concentration versus response (variable slope).

Another assay concerns the target BRISC BRCC45 R137A (Homo sapiens, UniProt P46736+Q15018+Q9NXR7, R137A). The assay is described as follows: BRISC mutant IQF assay: BRCC45 R137A. The protocol:
as §1, §2

In another assay the target is BRISC BRCC45 D248R (Homo sapiens, UniProt P46736+Q15018+Q9NXR7, D248R). The assay is described as follows: BRISC mutant IQF assay: BRCC45 D248R. The protocol:
as §1, §2

A further assay addresses BRISC Abraxas2 I133W (Homo sapiens, UniProt P46736+Q15018+Q9NXR7, I133W). Kind of assay: BRISC mutant IQF assay: Abraxas2 I133W. The protocol:
as §1, §3

In assay [1] the target is T1, panel of 48 purified DUBs (Homo sapiens, UniProt A6NNY8).
T1 construct: purchased Ubiquigent (DUBprofiler service)
The assay is described as follows: DUB selectivity profiling (DUBprofiler, ubiquitin–rhodamine(110)–glycine). Conditions: DUB USP27X; screening concentration 5 μM; 5 µM. As to the method: (§4) Biochemical selectivity profiling (DUBprofiler) was performed by Ubiquigent with a panel of 48 purified DUBs and ubiquitin–rhodamine(110)–glycine as a fluorescent substrate.

Assay [2] has as its target T2, panel of 48 purified DUBs (Homo sapiens, UniProt Q96RU2).
T2 construct: purchased Ubiquigent (DUBprofiler service)
The assay is described as above. Conditions: DUB USP28; screening concentration 5 μM; 5 µM. The protocol: as §4

Assay [3] deals with T3, panel of 48 purified DUBs (Homo sapiens, UniProt P40818).
T3 construct: purchased Ubiquigent (DUBprofiler service)
The assay is described as above. Conditions: DUB USP8; screening concentration 5 μM; 5 µM. As to the method: as §4

Assay [4] has as its target T4, panel of 48 purified DUBs (Homo sapiens, UniProt Q93009).
T4 construct: purchased Ubiquigent (DUBprofiler service)
Described as above. The note with it: DUB USP7; screening concentration 5 μM; 5 µM. As to the method: as §4

Assay [5] deals with T5, panel of 48 purified DUBs (Homo sapiens, UniProt Q9P2H5).
T5 construct: purchased Ubiquigent (DUBprofiler service)
Described as above. The note with it: DUB USP35; screening concentration 5 μM; 5 µM. The protocol:
as §4

For assay [6], the target named is T6, panel of 48 purified DUBs (Homo sapiens, UniProt O94782).
T6 construct: purchased Ubiquigent (DUBprofiler service)
The description is as above. The note with it: DUB USP1/UAF1; screening concentration 5 μM; 5 µM. As to the method:
as §4

Assay [7] has as its target T7, panel of 48 purified DUBs (Homo sapiens, UniProt Q5VV17).
T7 construct: purchased Ubiquigent (DUBprofiler service)
The assay is described as above. The note with it: DUB OTUD1; screening concentration 5 μM; 5 µM. The protocol: as §4

Assay [8] addresses T8, panel of 48 purified DUBs (Homo sapiens, UniProt Q5T2D3).
T8 construct: purchased Ubiquigent (DUBprofiler service)
The description is as above. Conditions: DUB OTUD3; screening concentration 5 μM; 5 µM. As to the method:
as §4

Assay [9] addresses T9, panel of 48 purified DUBs (Homo sapiens, UniProt Q14694).
T9 construct: purchased Ubiquigent (DUBprofiler service)
The description is as above. The note with it: DUB USP10; screening concentration 5 μM; 5 µM. As to the method:
as §4

Assay [10] has as its target T10, panel of 48 purified DUBs (Homo sapiens, UniProt P62068).
T10 construct: purchased Ubiquigent (DUBprofiler service)
The description is as above. Conditions: DUB USP46/UAF1/WDR20; screening concentration 5 μM; 5 µM. The protocol:
as §4

Assay [11] addresses T11, panel of 48 purified DUBs (Homo sapiens, UniProt Q9UPU5).
T11 construct: purchased Ubiquigent (DUBprofiler service)
The assay is described as above. Conditions: DUB USP24; screening concentration 5 μM; 5 µM. As to the method: as §4

For assay [12], the target named is T12, panel of 48 purified DUBs (Homo sapiens, UniProt Q93008).
T12 construct: purchased Ubiquigent (DUBprofiler service)
The assay is described as above. The note with it: DUB USP9X; screening concentration 5 μM; 5 µM. The protocol:
as §4

Assay [13] concerns the target T13, panel of 48 purified DUBs (Homo sapiens, UniProt Q70CQ3).
T13 construct: purchased Ubiquigent (DUBprofiler service)
The description is as above. Conditions: DUB USP30; screening concentration 5 μM. As to the method: as §4

The target of assay [14] is T14, panel of 48 purified DUBs (Homo sapiens, UniProt Q9P275).
T14 construct: purchased Ubiquigent (DUBprofiler service)
Described as above. Conditions: DUB USP36; screening concentration 5 μM; 5 µM. As to the method: as §4

The mark [15] stands for this setting: FX-171-C 0.0035 μM, read-out: Normalised V0.
[16] abbreviates: FX-171-C 0.035 μM, read-out: Normalised V0.
Where [17] appears, read: FX-171-C 0.35 μM, read-out: Normalised V0.
The mark [18] stands for this setting: FX-171-C 12.5 μM, read-out: Normalised V0.
The mark [19] stands for this setting: FX-171-C 25 μM, read-out: Normalised V0.

“And” between values parts separate entries of the source, which are not always exact repeats. Equal values may be shown once.

T8 sequence (Q5T2D3 whole entry): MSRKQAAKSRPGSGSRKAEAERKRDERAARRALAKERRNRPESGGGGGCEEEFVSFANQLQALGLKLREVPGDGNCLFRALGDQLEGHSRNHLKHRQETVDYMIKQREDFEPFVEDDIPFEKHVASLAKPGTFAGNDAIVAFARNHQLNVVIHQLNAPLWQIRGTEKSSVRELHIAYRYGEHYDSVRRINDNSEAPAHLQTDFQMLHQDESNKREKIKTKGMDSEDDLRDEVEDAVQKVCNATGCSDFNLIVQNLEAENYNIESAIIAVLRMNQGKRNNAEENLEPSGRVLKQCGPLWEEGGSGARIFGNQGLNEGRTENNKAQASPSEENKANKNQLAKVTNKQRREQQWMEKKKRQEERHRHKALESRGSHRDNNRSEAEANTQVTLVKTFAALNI
T5 sequence (Q9P2H5 whole entry): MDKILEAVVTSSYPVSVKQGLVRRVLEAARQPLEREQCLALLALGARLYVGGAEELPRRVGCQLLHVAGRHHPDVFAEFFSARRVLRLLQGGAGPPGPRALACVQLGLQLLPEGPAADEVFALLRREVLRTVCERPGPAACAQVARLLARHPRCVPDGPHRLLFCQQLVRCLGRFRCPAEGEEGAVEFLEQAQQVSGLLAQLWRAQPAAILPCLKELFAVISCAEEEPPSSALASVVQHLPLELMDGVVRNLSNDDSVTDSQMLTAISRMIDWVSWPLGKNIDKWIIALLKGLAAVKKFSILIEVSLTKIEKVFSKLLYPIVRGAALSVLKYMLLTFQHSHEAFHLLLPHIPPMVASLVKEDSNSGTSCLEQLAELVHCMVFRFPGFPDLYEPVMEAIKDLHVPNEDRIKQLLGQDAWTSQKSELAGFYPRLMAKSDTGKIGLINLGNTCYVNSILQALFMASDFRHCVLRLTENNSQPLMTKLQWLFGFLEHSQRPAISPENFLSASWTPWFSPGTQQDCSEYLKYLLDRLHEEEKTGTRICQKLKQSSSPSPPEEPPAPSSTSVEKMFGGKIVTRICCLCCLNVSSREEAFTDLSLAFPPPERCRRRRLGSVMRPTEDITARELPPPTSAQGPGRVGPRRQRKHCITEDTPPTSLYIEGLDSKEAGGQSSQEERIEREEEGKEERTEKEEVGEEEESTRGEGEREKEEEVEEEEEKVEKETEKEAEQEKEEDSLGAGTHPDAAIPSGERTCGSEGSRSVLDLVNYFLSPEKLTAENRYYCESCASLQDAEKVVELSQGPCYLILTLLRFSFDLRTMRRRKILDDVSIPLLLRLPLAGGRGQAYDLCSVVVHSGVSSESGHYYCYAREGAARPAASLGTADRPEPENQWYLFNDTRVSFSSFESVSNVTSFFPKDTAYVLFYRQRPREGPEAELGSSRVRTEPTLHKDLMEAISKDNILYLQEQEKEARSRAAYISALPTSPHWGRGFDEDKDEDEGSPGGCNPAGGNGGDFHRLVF
T9 sequence (Q14694 whole entry): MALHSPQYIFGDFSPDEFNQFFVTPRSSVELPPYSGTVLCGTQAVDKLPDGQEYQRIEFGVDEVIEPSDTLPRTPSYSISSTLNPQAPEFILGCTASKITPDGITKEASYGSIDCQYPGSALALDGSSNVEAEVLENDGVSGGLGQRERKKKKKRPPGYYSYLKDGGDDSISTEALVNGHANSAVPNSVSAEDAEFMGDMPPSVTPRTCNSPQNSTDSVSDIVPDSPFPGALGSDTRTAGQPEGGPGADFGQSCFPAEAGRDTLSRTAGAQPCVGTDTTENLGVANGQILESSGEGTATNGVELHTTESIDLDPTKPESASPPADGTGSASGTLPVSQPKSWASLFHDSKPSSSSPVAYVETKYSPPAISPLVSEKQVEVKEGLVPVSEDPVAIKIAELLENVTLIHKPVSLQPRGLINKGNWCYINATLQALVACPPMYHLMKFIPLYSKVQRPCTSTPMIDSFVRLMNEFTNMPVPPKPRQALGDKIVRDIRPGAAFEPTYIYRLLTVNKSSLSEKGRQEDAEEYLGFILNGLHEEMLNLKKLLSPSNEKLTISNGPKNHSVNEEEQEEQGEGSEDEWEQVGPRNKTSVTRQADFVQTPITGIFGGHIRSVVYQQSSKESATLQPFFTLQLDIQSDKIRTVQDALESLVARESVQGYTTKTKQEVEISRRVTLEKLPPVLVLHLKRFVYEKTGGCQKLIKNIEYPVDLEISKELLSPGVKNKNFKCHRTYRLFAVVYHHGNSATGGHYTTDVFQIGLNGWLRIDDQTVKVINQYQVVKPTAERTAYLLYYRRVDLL
T2 sequence (Q96RU2 whole entry): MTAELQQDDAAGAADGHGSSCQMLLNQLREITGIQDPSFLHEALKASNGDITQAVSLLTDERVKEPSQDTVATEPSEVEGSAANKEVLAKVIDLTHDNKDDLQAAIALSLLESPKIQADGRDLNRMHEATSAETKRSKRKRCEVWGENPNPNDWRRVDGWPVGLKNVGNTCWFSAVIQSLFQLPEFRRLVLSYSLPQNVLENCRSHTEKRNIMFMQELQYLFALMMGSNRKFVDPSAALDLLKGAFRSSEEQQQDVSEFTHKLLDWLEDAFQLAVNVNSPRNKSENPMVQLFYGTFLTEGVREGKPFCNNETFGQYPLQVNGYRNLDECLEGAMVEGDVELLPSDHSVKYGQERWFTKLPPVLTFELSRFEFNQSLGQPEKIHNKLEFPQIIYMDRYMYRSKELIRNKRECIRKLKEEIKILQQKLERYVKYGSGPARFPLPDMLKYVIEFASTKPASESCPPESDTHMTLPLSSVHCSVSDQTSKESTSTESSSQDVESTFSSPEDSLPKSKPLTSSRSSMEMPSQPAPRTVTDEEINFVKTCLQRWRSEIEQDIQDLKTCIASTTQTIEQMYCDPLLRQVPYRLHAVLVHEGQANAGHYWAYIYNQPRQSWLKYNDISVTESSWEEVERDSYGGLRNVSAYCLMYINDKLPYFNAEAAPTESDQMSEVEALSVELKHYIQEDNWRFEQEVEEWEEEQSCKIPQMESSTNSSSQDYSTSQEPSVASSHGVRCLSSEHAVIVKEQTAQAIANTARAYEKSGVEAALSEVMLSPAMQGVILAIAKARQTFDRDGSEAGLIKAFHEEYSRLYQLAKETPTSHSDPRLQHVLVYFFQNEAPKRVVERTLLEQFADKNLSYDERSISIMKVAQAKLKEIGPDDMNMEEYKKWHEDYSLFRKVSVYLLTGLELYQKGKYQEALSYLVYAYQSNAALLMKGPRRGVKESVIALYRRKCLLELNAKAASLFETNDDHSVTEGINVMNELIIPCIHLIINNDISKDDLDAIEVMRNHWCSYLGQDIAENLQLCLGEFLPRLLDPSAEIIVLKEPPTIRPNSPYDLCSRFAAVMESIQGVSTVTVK
T3 sequence (P40818 whole entry): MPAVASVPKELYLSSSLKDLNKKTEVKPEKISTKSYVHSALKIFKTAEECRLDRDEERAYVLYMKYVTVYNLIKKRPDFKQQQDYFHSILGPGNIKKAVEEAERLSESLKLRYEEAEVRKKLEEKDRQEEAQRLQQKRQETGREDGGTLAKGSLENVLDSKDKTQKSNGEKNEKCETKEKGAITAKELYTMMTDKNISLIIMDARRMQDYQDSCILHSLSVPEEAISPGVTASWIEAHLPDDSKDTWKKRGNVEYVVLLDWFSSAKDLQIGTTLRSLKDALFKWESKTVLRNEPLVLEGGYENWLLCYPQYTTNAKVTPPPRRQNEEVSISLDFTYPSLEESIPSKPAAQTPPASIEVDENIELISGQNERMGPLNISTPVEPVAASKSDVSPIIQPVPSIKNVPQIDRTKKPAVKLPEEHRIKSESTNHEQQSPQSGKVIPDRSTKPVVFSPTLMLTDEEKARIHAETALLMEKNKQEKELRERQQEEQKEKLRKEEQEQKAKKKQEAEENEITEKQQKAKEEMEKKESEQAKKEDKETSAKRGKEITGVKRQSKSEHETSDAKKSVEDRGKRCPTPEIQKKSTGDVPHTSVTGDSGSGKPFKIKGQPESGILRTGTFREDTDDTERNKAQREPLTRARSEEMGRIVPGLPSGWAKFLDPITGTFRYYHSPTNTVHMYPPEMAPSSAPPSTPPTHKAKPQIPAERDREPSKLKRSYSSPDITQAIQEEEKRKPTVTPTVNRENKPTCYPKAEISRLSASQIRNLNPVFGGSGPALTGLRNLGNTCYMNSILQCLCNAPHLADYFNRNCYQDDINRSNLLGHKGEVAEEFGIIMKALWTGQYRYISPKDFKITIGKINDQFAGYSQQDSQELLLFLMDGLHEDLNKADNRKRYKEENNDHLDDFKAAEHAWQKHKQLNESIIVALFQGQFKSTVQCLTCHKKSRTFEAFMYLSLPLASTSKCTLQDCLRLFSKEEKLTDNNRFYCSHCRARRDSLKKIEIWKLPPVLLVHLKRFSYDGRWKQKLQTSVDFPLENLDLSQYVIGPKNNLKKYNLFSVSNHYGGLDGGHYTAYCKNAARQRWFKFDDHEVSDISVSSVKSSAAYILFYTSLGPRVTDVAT
T1 sequence (A6NNY8 whole entry): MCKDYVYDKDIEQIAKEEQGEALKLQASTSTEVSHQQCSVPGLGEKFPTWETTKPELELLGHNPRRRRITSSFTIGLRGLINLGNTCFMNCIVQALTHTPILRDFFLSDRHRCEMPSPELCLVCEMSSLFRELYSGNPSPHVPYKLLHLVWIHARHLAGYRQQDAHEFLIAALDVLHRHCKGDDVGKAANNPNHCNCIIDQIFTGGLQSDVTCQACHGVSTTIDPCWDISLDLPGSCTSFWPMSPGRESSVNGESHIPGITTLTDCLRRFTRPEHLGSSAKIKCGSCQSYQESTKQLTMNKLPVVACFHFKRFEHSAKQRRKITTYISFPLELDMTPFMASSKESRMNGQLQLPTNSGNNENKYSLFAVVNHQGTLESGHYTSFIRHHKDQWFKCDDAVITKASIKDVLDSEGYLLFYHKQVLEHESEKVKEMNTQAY

On to `O=C(NC1C2CNCC21)c1nn(C(=O)c2c(Cl)cccc2Cl)cc1NC(=O)c1c(Cl)cccc1Cl` (centres unmarked) [FX-171-C], for which the IC50 (in general, the concentration that inhibits the measured activity by half) on BRISC BRCC45 C245A is 31 µM; against BRISC BRCC45 R137A+F140A, 52 µM; on BRISC BRCC45 R137A it was > 100 µM; on BRISC BRCC45 D248R it was > 100 µM; on BRISC Abraxas2 I133W, 2.3 µM. Further, the “inhibitor sensitivity vs BRISC WT” value is listed as “reduced sensitivity to inhibition” against BRISC BRCC45 C245A, “reduced sensitivity to inhibition” against BRISC BRCC45 R137A, “reduced sensitivity to inhibition” against BRISC BRCC45 D248R and “moderate to little effect on inhibitor sensitivity” against BRISC Abraxas2 I133W. The remaining activity at 0.0035 µM stood at 97.7% at BRISC BRCC45 C245A (setting [15]) and 91.7% at BRISC BRCC45 D248R (setting [15]). Besides, the remaining activity at 0.035 µM at BRISC BRCC45 C245A (setting [16]) was found to be 74.6%; at BRISC BRCC45 R137A+F140A (setting [16]), 79.9%; at BRISC BRCC45 D248R (setting [16]) it was 97.4%. The remaining activity at 0.35 µM is 94.7% at BRISC BRCC45 C245A (setting [17]) and 91.7% on BRISC BRCC45 D248R (setting [17]). The remaining activity at 6.25 µM on BRISC BRCC45 C245A (FX-171-C 6.25 μM, read-out: Normalised V0) worked out at 66.4%. Also, the remaining activity at 12.5 µM came out at 43.3% on BRISC BRCC45 C245A (setting [18]) and 87.5% at BRISC BRCC45 R137A (setting [18]). Further, the figures for the remaining activity at 25 µM on BRISC BRCC45 C245A (setting [19]) and at BRISC BRCC45 R137A (setting [19]) were 46.6% and 80.1%, respectively.

As for `O=C(NC1CCNCC1)c1nn(C(=O)c2c(Cl)cccc2Cl)cc1NC(=O)c1c(Cl)cccc1Cl` [JMS-175-2], the “Activity (% control)” value was 102 % control and 97 % control in assay [1]; 107 % control and 96 % control in assay [2]; 88 % control and 84 % control in assay [3]; 116 % control and 121 % control in [4]; 96 % control and 94 % control in [5]; 81 % control and 82 % control in [6]. Further, the “Activity (% control)” value in [7] was 100 % control and 102 % control; in [8] it was 95 % control and 93 % control; in [9], 95 % control and 102 % control; in assay [10], 95 % control and 99 % control; in assay [11], 98 % control and 99 % control; in [12] it was 103 % control and 98 % control. Besides, the “Activity (% control)” value in assay [13] was 89 % control; in assay [14] it was 108 % control and 117 % control.
